Assay results published in patent US12428406B2 (PMV Pharmaceuticals, Inc., priority 2019, dated 2025).

Biological target: T1, p53 Y220C (Homo sapiens, UniProt P04637, Y220C)
T1 construct: The recombinant protein was a truncation mutant containing only amino acids 94-312 of p53; made in house; host or cells: E. coli
Assay: In vitro DNA binding activity assay (HTRF / TR-FRET): stabilization of p53 Y220C and increase of its DNA binding activity
Type: biochemical
Conditions: recombinant His-tagged p53 Y220C DNA binding domain (aa 94-312), biotin-labeled consensus DNA, incubated at 27° C. or 29° C. for 60 min
How it was run: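 Compound effect on DNA binding of recombinant His-p53 Y220C (E. coli) to biotin-labeled consensus DNA, expressed as SC150, the concentration giving 50% increase versus untreated. Serial 3-fold DMSO dilutions of 4.5 mM stocks; room-temperature steps of 15 then 20 min.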

T1 sequence (P04637 94-312, change not shown): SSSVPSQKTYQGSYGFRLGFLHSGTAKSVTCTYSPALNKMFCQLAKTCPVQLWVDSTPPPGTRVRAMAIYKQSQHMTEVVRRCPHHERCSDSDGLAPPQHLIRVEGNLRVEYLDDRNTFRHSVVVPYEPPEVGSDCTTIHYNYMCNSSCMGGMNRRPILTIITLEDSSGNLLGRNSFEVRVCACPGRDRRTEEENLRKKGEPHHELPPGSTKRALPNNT

SMILES | SC150 (concentration of the compound required to increase the DNA binding activity by 50%)
CCNC(=O)c1ccc(NCC#Cc2cc3c(N[C@H]4CC[C@@H](N(C)C)CC4)cccc3n2CC(F)(F)F)c(OC)c1 [Compound 102A, N-ethyl-3-methoxy-4-{[3-(4-{[(1S,4S)-4-(dimethylamino)cyclo-hexyl]amino}-1-(2,2,2-trifluoroethyl)-1H-indol-2-yl)prop-2-yn-1-yl]amino}benzamide] | + (+ = 0 μM ≤ SC150 < 0.05 μM)
CNC(=O)c1ccc(NCC#Cc2cc3c(N[C@H]4CC[C@H](N(C)C)CC4)cccc3n2CC(F)(F)F)c(OCCOC)c1 [Compound 103A, 3-(2-methoxyethoxy)-N-methyl-4-{[3-(4-{[(1R,4R)-4-(dimethylamino)cyclo-hexyl]amino}-1-(2,2,2-trifluoroethyl)-1H-indol-2-yl)prop-2-yn-1-yl]amino}benzamide] | + (+ = 0 μM ≤ SC150 < 0.05 μM)
CNC(=O)c1ccc(NCC#Cc2cc3c(N[C@H]4CC[C@H](N(C)C)CC4)cccc3n2CC(F)(F)F)c(OCCF)c1 [Compound 104A, 3-(2-fluoroethoxy)-N-methyl-4-{[3-(4-{[(1R,4R)-4-(dimethyl-amino)cyclohexyl]amino}-1-(2,2,2-trifluoro-ethyl)-1H-indol-2-yl)prop-2-yn-1-yl]amino}benzamide] | + (+ = 0 μM ≤ SC150 < 0.05 μM)
CNC(=O)c1ccc(NCC#Cc2cc3c(N[C@H]4CC[C@@H](N(C)C)CC4)cccc3n2CC(F)(F)F)c(OCCF)c1 [Compound 105A, 3-(2-fluoroethoxy)-N-methyl-4-{[3-(4-{[(1S,4S)-4-(dimethyl-amino)cyclohexyl]amino}-1-(2,2,2-trifluoro-ethyl)-1H-indol-2-yl)prop-2-yn-1-yl]amino}benzamide] | + (+ = 0 μM ≤ SC150 < 0.05 μM)
CNC(=O)c1ccc(NCC#Cc2cc3c(N[C@H]4CC[C@H](N(C)C)CC4)cccc3n2CC(F)(F)F)c(OCF)c1 [Compound 106A, 3-(fluoromethoxy)-N-methyl-4-{[3-(4-{[(1R,4R)-4-(dimethyl-amino)cyclohexyl]amino}-1-(2,2,2-trifluoro-ethyl)-1H-indol-2-yl)prop-2-yn-1-yl]amino}benzamide] | + (+ = 0 μM ≤ SC150 < 0.05 μM)
CNC(=O)c1ccc(NCC#Cc2cc3c(N[C@H]4CC[C@@H](N(C)C)CC4)cccc3n2CC(F)(F)F)c(OCF)c1 [Compound 107A, 3-(fluoromethoxy)-N-methyl-4-{[3-(4-{[(1S,4S)-4-(dimethyl-amino)cyclohexyl]amino}-1-(2,2,2-trifluoro-ethyl)-1H-indol-2-yl)prop-2-yn-1-yl]amino}benzamide] | + (+ = 0 μM ≤ SC150 < 0.05 μM)
CNc1cc(S(C)(=O)=O)ccc1OCC#Cc1cc2c(N[C@H]3CC[C@@H](N(C)C)CC3)cccc2n1CC(F)(F)F [Compound 108A, (1S,4S)-N^4-(2-{3-[4-methanesulfonyl-2-(methylamino)phenoxy]prop-1-yn-1-yl}-1-(2,2,2-trifluoroethyl)-1H-indol-4-yl)-N^1,N^1-dimethylcyclohexane-1,4-diamine] | ++ (++ = 0.05 μM ≤ SC150 < 0.1 μM)
CNc1cc(S(C)(=O)=O)ccc1OCC#Cc1cc2c(N[C@H]3CC[C@H](N(C)C)CC3)cccc2n1CC(F)(F)F [Compound 109A, (1R,4R)-N^4-(2-{3-[4-methanesulfonyl-2-(methylamino)phenoxy]prop-1-yn-1-yl}-1-(2,2,2-trifluoroethyl)-1H-indol-4-yl)-N^1,N^1-dimethylcyclohexane-1,4-diamine] | + (+ = 0 μM ≤ SC150 < 0.05 μM)
CNC(=O)c1ccc(NCC#Cc2cc3c(N[C@H]4CC[C@@H](NC)CC4)cccc3n2CC(F)(F)F)c(OC)c1 [Compound 110A, 3-methoxy-N-methyl-4-{[3-(4-{[(1S,4S)-4-(methylamino)cyclohexyl]amino}-1-(2,2,2-trifluoro-ethyl)-1H-indol-2-yl)prop-2-yn-1-yl]amino}benzamide] | + (+ = 0 μM ≤ SC150 < 0.05 μM)
CN(C)c1cc(S(C)(=O)=O)ccc1OCC#Cc1cc2c(N[C@H]3CC[C@@H](N(C)C)CC3)cccc2n1CC(F)(F)F [Compound 111A, (1S,4S)-N^4-(2-{3-[2-(dimethylamino)-4-methanesulfonyl-phenoxy]prop-1-yn-1-yl}-1-(2,2,2-trifluoroethyl)-1H-indol-4-yl)-N^1,N^1-dimethylcyclohexane-1,4-diamine] | ++++ (++++ = 0.2 μM ≤ SC150 < 1 μM)
CN(C)c1cc(S(C)(=O)=O)ccc1OCC#Cc1cc2c(N[C@H]3CC[C@H](N(C)C)CC3)cccc2n1CC(F)(F)F [Compound 112A, (1R,4R)-N^4-(2-{3-[2-(dimethylamino)-4-methanesulfonyl-phenoxy]prop-1-yn-1-yl}-1-(2,2,2-trifluoroethyl)-1H-indol-4-yl)-N^1,N^1-dimethylcyclohexane-1,4-diamine] | +++ (+++ = 0.1 μM ≤ SC150 < 0.2 μM)
CNC(=O)c1ccc(NCC#Cc2cc3c(N[C@H]4CC[C@H](N(C)C)CC4)cccc3n2CC(F)(F)F)c(OCC#N)c1 [Compound 113A, 3-(cyanomethoxy)-N-methyl-4-{[3-(4-{[(1R,4R)-4-(dimethyl-amino)cyclohexyl]amino}-1-(2,2,2-trifluoro-ethyl)-1H-indol-2-yl)prop-2-yn-1-yl]amino}benzamide] | + (+ = 0 μM ≤ SC150 < 0.05 μM)
CNC(=O)c1ccc(NCC#Cc2cc3c(N[C@H]4CC[C@H](N(C)C)CC4)cccc3n2CC(F)(F)F)c(OCCC#N)c1 [Compound 114A, 3-(2-cyanoethoxy)-N-methyl-4-{[3-(4-{[(1R,4R)-4-(dimethyl-amino)cyclohexyl]amino}-1-(2,2,2-trifluoro-ethyl)-1H-indol-2-yl)prop-2-yn-1-yl]amino}benzamide] | + (+ = 0 μM ≤ SC150 < 0.05 μM)
CC(=O)Nc1cc(S(C)(=O)=O)ccc1OCC#Cc1cc2c(N[C@H]3CC[C@H](N(C)C)CC3)cccc2n1CC(F)(F)F [Compound 115A, N-(5-methanesulfonyl-2-{[3-(4-{[(1R,4R)-4-(dimethylamino)cyclohexyl]amino}-1-(2,2,2-trifluoro-ethyl)-1H-indol-2-yl)prop-2-yn-1-yl]oxy}phenyl)acetamide] | ++ (++ = 0.05 μM ≤ SC150 < 0.1 μM)
CN(C)[C@H]1CC[C@H](Nc2cccc3c2cc(C#CCNc2ccc(S(C)(=O)=O)cc2OCF)n3CC(F)(F)F)CC1 [Compound 117A, (1R,4R)—N^1-(2-(3-((2-(fluoromethoxy)-4-(methylsulfonyl)phenyl)amino)prop-1-yn-1-yl)-1-(2,2,2-trifluoroethyl)-1H-indol-4-yl)-N^4,N^4-dimethylcyclohexane-1,4-diamine] | + (+ = 0 μM ≤ SC150 < 0.05 μM)
CCS(=O)(=O)c1ccc(NCC#Cc2cc3c(N[C@H]4CC[C@H](N(C)C)CC4)cccc3n2CC(F)(F)F)c(OC)c1 [Compound 119A, (1R,4R)—N^4-[2-(3-{[4-(ethanesulfonyl)-2-methoxyphenyl]amino}prop-1-yn-1-yl)-1-(2,2,2-trifluoroethyl)-1H-indol-4-yl]-N^1,N^1-dimethylcyclohexane-1,4-diamine] | + (+ = 0 μM ≤ SC150 < 0.05 μM)
CCS(=O)(=O)c1ccc(NCC#Cc2cc3c(N[C@H]4CC[C@@H](N(C)C)CC4)cccc3n2CC(F)(F)F)c(OC)c1 [Compound 120A, (1S,4S)—N^4-[2-(3-{[4-(ethanesulfonyl)-2-methoxyphenyl]amino}prop-1-yn-1-yl)-1-(2,2,2-trifluoroethyl)-1H-indol-4-yl]-N^1,N^1-dimethylcyclohexane-1,4-diamine] | + (+ = 0 μM ≤ SC150 < 0.05 μM)
COc1cc(C(C)(C)C#N)ccc1NCC#Cc1cc2c(N[C@H]3CC[C@H](N(C)C)CC3)cccc2n1CC(F)(F)F [Compound 121A, 2-(3-methoxy-4-{[3-(4-{[(1R,4R)-4-(dimethylamino)cyclohexyl]amino}-1-(2,2,2-trifluoroethyl)-1H-indol-2-yl)prop-2-yn-1-yl]amino}phenyl)-2-methylpropanenitrile] | + (+ = 0 μM ≤ SC150 < 0.05 μM)
CN(C)[C@H]1CC[C@H](Nc2cccc3c2cc(C#CCNc2ccc(S(N)(=O)=O)cc2OCC#N)n3CC(F)(F)F)CC1 [Compound 123A, 3-(cyanomethoxy)-4-{[3-(4-{[(1R,4R)-4-(dimethylamino)cyclohexyl]amino}-1-(2,2,2-trifluoroethyl)-1H-indol-2-yl)prop-2-yn-1-yl]amino}benzene-1-sulfonamide] | + (+ = 0 μM ≤ SC150 < 0.05 μM)
CN(C)[C@H]1CC[C@H](Nc2cccc3c2cc(C#CCn2c(=O)oc4cc(S(C)(=O)=O)ccc42)n3CC(F)(F)F)CC1 [Compound 125A, 3-(3-(4-(((1R,4R)-4-(dimethylamino)cyclohexyl)amino)-1-(2,2,2-trifluoroethyl)-1H-indol-2-yl)prop-2-yn-1-yl)-6-(methylsulfonyl)benzo[d]oxazol-2 (3H)-one] | ++++ (++++ = 0.2 μM ≤ SC150 < 1 μM)
COc1cc(S(=O)(=O)N(C)C)ccc1NCC#Cc1cc2c(N[C@H]3CC[C@H](N(C)C)CC3)cccc2n1CC(F)(F)F [Compound 127A, 3-methoxy-N,N-dimethyl-4-{[3-(4-{[(1R,4R)-4-(dimethylamino)cyclohexyl]amino}-1-(2,2,2-trifluoroethyl)-1H-indol-2-yl)prop-2-yn-1-yl]amino}benzene-1-sulfonamide] | + (+ = 0 μM ≤ SC150 < 0.05 μM)
